Results taken from US20220249665A1, “TRANSFECTION METHOD” (Takeda Pharmaceutical Company Limited, priority 2019, published 2022).

Tested on: C2C12 cells
Assay: Introduction of low-molecular-weight compound (FITC) into skeletal muscle cell
Type: cell-based
Experimental: C2C12 cells (3×10^4 cells, 0.5 mL) in 10% FBS-containing DMEM medium were seeded in 48 wells. After removing the medium, 0.5 ml of ultrafine bubble/DMEM medium containing 0.38 μg of FITC was added. An ultrafine bubble/DMEM medium prepared by adding 1 L of the ultrafine bubble aqueous solution prepared in Reference Example 1 to a DMEM medium powder, and adding 2 g/L NaHCO3 and 10% FBS was used as a transfection medium.
After adding the FITC-containing medium, ultrasound exposure was performed for 10 sec at a frequency of 1 MHz and output intensities of 100, 250, 500 mW/cm^2 and using an ultrasound generator (NEPAGENE). After ultrasound exposure, the cells were cultured for 2 hr, then the transfection medium was removed, and the cells were cultured in DMEM medium (culture medium) for 48 hr.
After completion of the culture, the cells were collected, completely lysed with 0.5 mL of cell lysis solution, and the fluorescent intensity of FITC was measured with a spectrofluoro-photometer. The amount of FITC uptake was evaluated as a relative amount by proportional calculation with the measured value of Control (ultrafine bubbles alone) as 1.

O=C1OC2(c3ccc(O)cc3Oc3cc(O)ccc32)c2ccc(N=C=S)cc21 [FITC]
introduction efficiency of FITC into the cell (ultrafine bubbles (negatively-charged, C3F8) combined with ultrasound 1 MHz, 10 sec, C2C12, 0.38 μg FITC): remarkably increased
introduction efficiency of FITC (ultrafine bubbles + ultrasound 100 mW/cm^2): increasing tendency was observed
introduction efficiency of FITC (ultrafine bubbles + ultrasound 250 mW/cm^2): particularly superior introduction efficiency
introduction efficiency of FITC (ultrafine bubbles + ultrasound 250 or 500 mW/cm^2): increased significantly
